Consider 29 molecules from patent US20080021026A1, “BENZOTHIOPHENE INHIBITORS OF RHO KINASE” (priority 2006, published 2008).

Bounds are passed on as bounds.

In assay [1] the target is T1, recombinant N-terminal GST-tagged human Rho kinase 1 (ROCK1, amino acids 1-535) (Homo sapiens, UniProt Q13464).
T1 construct: ROCK1, amino acids 1-535; purchased Invitrogen Inc. PV-3691
Nature of the assay: In vitro Rho kinase assay (luciferase-based ATP consumption), ROCK1. Particulars: recombinant GST-tagged human ROCK1, luciferase-based ATP consumption; read-out: ROCK1 IC50. It is filed as biochemical. In outline: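 ATP depletion measured by firefly luciferase luminescence after 2 h at 30 °C, with inhibition raising signal and activity expressed relative to H-1152P. Reaction: 0.82 μg/ml recombinant GST-tagged ROCK1 (aa 1-535), S6 peptide 100 μg/ml, […], pH 7.5 Tris buffer.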

The target of assay [2] is T2, recombinant N-terminal GST-tagged human Rho kinase 2 (ROCK2, amino acids 1-552) (Homo sapiens, UniProt O75116).
T2 construct: ROCK2, amino acids 1-552; purchased Invitrogen Inc. PV3759
Nature of the assay: In vitro Rho kinase assay (luciferase-based ATP consumption), ROCK2. It is filed as biochemical. Particulars: recombinant GST-tagged human ROCK2, luciferase-based ATP consumption; read-out: ROCK2 IC50. In outline: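 Luciferase-based luminescence of leftover ATP after 2 h at 30 °C, where inhibition raises signal, reports activity of GST-tagged ROCK2 (aa 1-552) at 0.82 μg/ml. Conditions: S6 peptide 100 μg/ml, […], pH 7.5 Tris buffer. Results given as percent of H-1152P control activity.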

T2 sequence (O75116 1-552): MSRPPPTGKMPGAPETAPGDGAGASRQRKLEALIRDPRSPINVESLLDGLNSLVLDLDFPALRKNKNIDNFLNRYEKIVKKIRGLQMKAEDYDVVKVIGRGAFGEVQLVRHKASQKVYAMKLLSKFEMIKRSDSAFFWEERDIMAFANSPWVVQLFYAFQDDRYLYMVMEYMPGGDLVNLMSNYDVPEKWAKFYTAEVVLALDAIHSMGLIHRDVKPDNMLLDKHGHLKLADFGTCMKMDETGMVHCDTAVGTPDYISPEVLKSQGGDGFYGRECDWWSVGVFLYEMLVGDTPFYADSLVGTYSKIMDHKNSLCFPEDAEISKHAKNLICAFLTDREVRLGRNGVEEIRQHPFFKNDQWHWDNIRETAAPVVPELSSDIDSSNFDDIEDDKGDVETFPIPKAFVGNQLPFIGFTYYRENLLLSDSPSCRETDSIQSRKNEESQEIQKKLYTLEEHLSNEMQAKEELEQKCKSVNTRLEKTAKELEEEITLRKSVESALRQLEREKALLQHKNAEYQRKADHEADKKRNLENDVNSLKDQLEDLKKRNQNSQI
T1 sequence (Q13464 1-535): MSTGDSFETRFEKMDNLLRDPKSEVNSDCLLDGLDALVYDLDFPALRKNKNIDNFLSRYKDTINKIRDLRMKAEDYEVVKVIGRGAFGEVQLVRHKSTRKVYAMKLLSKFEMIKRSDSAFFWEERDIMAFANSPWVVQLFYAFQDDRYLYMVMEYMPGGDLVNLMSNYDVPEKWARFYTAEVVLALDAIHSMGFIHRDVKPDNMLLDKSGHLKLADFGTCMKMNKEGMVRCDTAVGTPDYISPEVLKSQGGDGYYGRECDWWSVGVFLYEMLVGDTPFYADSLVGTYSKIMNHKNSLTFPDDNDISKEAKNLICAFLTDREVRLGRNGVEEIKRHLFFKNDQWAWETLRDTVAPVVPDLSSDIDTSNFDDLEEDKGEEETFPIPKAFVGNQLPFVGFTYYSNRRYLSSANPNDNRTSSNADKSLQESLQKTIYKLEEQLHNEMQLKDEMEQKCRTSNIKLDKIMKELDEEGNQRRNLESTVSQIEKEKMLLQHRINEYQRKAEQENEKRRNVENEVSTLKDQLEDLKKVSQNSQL

With `Cc1cccc(C(=O)NCc2ccc3sc(-c4ccnc(N)n4)c(C)c3c2)c1` [Example 118, Cc1cccc(c1)C(═O)NCc2ccc3sc(c(C)c3c2)-c4ccnc(N)n4], the IC50 in assay [1] and in assay [2] was over 5 µM in each case.
Regarding `Cc1c(-c2ccnc(N)n2)sc2ccc(CNC(=O)c3cncc(Br)c3)cc12` [Example 271, Cc1c(sc2ccc(CNC(═O)c3cncc(Br)c3)cc12)-c4ccnc(N)n4], the IC50 in assay [1] is over 5 µM; in assay [2] it was under 5 µM.
For `Cc1cc(C)c(C(=O)NCc2ccc3sc(-c4ccnc(N)n4)c(C)c3c2)c(C)c1` [Example 170, Cc1cc(C)c(c(C)c1)C(═O)NCc2ccc3sc(c(C)c3c2)-c4ccnc(N)n4] the same measures were over 5 µM and under 5 µM.
The matching figures for `Cc1c(-c2ccnc(N)n2)sc2ccc(Cc3cccc(C#N)c3)cc12` [Example 40, 3-((2-(2-Aminopyrimidin-4-yl)-3-methylbenzo[b]thiophen-5-yl)methyl)benzonitrile]: under 5 µM and under 5 µM.
In the case of `Cc1c(-c2ccnc(N)n2)sc2ccc(CNC(=O)c3cc4ccccc4cc3O)cc12` [Example 238, Cc1c(sc2ccc(CNC(═O)c3cc4ccccc4cc3O)cc12)-c5ccnc(N)n5], the IC50 in assay [1] and in assay [2] was under 5 µM throughout.
As for `Cc1c(-c2ccnc(N)n2)sc2ccc(Cl)cc12` [Example 1, 4-(5-Chloro-3-methylbenzo[b]thiophen-2-yl)pyrimidin-2-amine], the IC50 in assay [1] and in assay [2] was under 5 µM each time.
As for `Cc1c(-c2ccnc(N)n2)sc2ccc(Cc3cccc(OCCN(C)C)c3)cc12` [Example 30, 4-(5-(3-(2-(Dimethylamino)ethoxy)benzyl)-3-methylbenzo[b]thiophen-2-yl)pyrimidin-2-amine], the IC50 in assay [1] and in assay [2] was under 5 µM in each case.
Consider `Cc1c(-c2ccnc(N)n2)sc2ccc(CNC(=O)c3ccc(C(C)C)cc3)cc12` [Example 166, CC(C)c1ccc(cc1)C(═O)NCc2ccc3sc(c(C)c3c2)-c4ccnc(N)n4], for which the half-inhibitory concentration (IC50) in assay [1] and in assay [2] was over 5 µM each time.
As for `CCCCOc1ccc(C(=O)NCc2ccc3sc(-c4ccnc(N)n4)c(C)c3c2)cc1` [Example 257, CCCCOc1ccc(cc1)C(═O)NCc2ccc3sc(c(C)c3c2)-c4ccnc(N)n4], the IC50 in assay [1] and in assay [2] was over 5 µM throughout.
Consider `Cc1c(-c2ccnc(N)n2)sc2ccc(CNC(=O)c3c(F)cccc3F)cc12` [Example 153, Cc1c(sc2ccc(CNC(═O)c3c(F)cccc3F)cc12)-c4ccnc(N)n4], for which the half-inhibitory concentration (IC50) in assay [1] and in assay [2] was under 5 µM in each case.
Take `Nc1nccc(-c2cc3ccccc3s2)n1` [Example 2, 4-(Benzo[b]thiophen-2-yl)pyrimidin-2-amine]: the IC50 in assay [1] and in assay [2] was under 5 µM each time.
As for `Cc1c(-c2ccnc(N)c2)sc2ccc(Cl)cc12` [Example 7, 4-(5-Chloro-3-methylbenzo[b]thiophen-2-yl)pyridin-2-amine], the concentration for half-maximal inhibition (IC50) in assay [1] and in assay [2] was over 5 µM throughout.
As for `Cc1c(-c2ccnc(N)n2)sc2ccc(Cc3cccc(C(=O)OC(C)C)c3)cc12` [Example 43, Isopropyl 3-((2-(2-aminopyrimidin-4-yl)-3-methylbenzo[b]thiophen-5-yl)methyl)benzoate], the IC50 in assay [1] and in assay [2] was under 5 µM in each case.
`Cc1ccc(C)c(C(=O)NCc2ccc3sc(-c4ccnc(N)n4)c(C)c3c2)c1` [Example 134, Cc1ccc(C)c(c1)C(═O)NCc2ccc3sc(c(C)c3c2)-c4ccnc(N)n4]: the IC50 in assay [1] and in assay [2] was under 5 µM throughout.
`Cc1c(-c2ccnc(N)n2)sc2ccc(CNC(=O)c3cc([N+](=O)[O-])ccc3O)cc12` [Example 228, Cc1c(sc2ccc(CNC(═O)c3cc(ccc3O)[N+]([O−])═O)cc12)-c4ccnc(N)n4]: the IC50 was over 5 µM in assay [1] and under 5 µM in assay [2].
In the case of `Cc1c(-c2ccnc(N)n2)sc2ccc(CNC(=O)c3ccc(Oc4cccc(O)c4)cc3)cc12` [Example 306, Cc1c(sc2ccc(CNC(═O)c3ccc(Oc4cccc(O)c4)cc3)cc12)-c5ccnc(N)n5], the IC50 in assay [1] is over 5 µM; in assay [2] it was under 5 µM.
Consider `Cc1c(-c2ccnc(N)n2)sc2ccc(CNC(=O)C3CCCCC3)cc12` [Example 115, Cc1c(sc2ccc(CNC(═O)C3CCCCC3)cc12)-c4ccnc(N)n4], for which the values for the IC50 in assay [1] and in assay [2] were over 5 µM and under 5 µM, respectively.
As to `Cc1c(-c2ccnc(N)n2)sc2ccc(CNC(=O)c3ccc(Br)cc3)cc12` [Example 263, Cc1c(sc2ccc(CNC(═O)c3ccc(Br)cc3)cc12)-c4ccnc(N)n4], the IC50 is over 5 µM in assay [1] and under 5 µM in assay [2].
The matching figures for `Cc1c(-c2ccnc(N)n2)sc2ccc(CNC(=O)c3cccc(F)c3)cc12` [Example 124, Cc1c(sc2ccc(CNC(═O)c3cccc(F)c3)cc12)-c4ccnc(N)n4]: over 5 µM and under 5 µM.
As for `Cc1c(-c2ccnc(N)n2)sc2ccc(-c3ccccc3)cc12` [Example 88, 4-(3-Methyl-5-phenylbenzo[b]thiophen-2-yl)pyrimidin-2-amine], the IC50 in assay [1] was under 5 µM; in assay [2], over 5 µM.
On to `Cc1cccc([N+](=O)[O-])c1C(=O)NCc1ccc2sc(-c3ccnc(N)n3)c(C)c2c1` [Example 215, Cc1cccc(c1C(═O)NCc2ccc3sc(c(C)c3c2)-c4ccnc(N)n4)[N+]([O−])═O], for which the IC50 is over 5 µM in assay [1] and under 5 µM in assay [2].
On to `Cc1c(-c2ccnc(N)n2)sc2ccc(CNC(=O)CCc3cccc(Br)c3)cc12` [Example 304, Cc1c(sc2ccc(CNC(═O)CCc3cccc(Br)c3)cc12)-c4ccnc(N)n4], for which the IC50 was over 5 µM in assay [1] and under 5 µM in assay [2].
For `CCOC(=O)CC(=O)NCc1ccc2sc(-c3ccnc(N)n3)c(C)c2c1` [Example 117, CCOC(═O)CC(═O)NCc1ccc2sc(c(C)c2c1)-c3ccnc(N)n3] the same measures were over 5 µM and under 5 µM.
For `Cc1c(-c2ccnc(N)n2)sc2ccc(CNC(=O)c3ccccc3)cc12` [Example 108, Cc1c(sc2ccc(CNC(═O)c3ccccc3)cc12)-c4ccnc(N)n4] the same measures were under 5 µM and over 5 µM.
As to `Cc1c(-c2ccnc(N)n2)sc2ccc(Cc3cccc(C(=O)O)c3)cc12` [Example 41, 3-((2-(2-Aminopyrimidin-4-yl)-3-methylbenzo[b]thiophen-5-yl)methyl)benzoic acid], the IC50 in assay [1] and in assay [2] was under 5 µM in each case.
For the molecule `CC(=O)NCC(=O)NCc1ccc2sc(-c3ccnc(N)n3)c(C)c2c1` [Example 107, CC(═O)NCC(═O)NCc1ccc2sc(c(C)c2c1)-c3ccnc(N)n3], the values for the IC50 in assay [1] and in assay [2] were over 5 µM and under 5 µM, respectively.
For `Cc1ccc(C(=O)NCc2ccc3sc(-c4ccnc(N)n4)c(C)c3c2)cc1F` [Example 145, Cc1ccc(cc1F)C(═O)NCc2ccc3sc(c(C)c3c2)-c4ccnc(N)n4] the same measures were over 5 µM and under 5 µM.
As for `Cc1c(-c2ccnc(N)n2)sc2ccc(CNC(=O)c3cccc(Br)c3)cc12` [Example 262, Cc1c(sc2ccc(CNC(═O)c3cccc(Br)c3)cc12)-c4ccnc(N)n4], the values for the half-maximal inhibitory concentration (IC50) in assay [1] and in assay [2] were over 5 µM and under 5 µM, respectively.
For `Cc1c(-c2cc(N)nc(N)n2)sc2ccc(Cl)cc12` [Example 9, 6-(5-Chloro-3-methylbenzo[b]thiophen-2-yl)pyrimidine-2,4-diamine] the same measures were over 5 µM and over 5 µM.

The term IC50 denotes the concentration that gives 50% inhibition.
